According to patent US20070166547A1, “Use of a layer consisting of hydrophobic linear, or two-dimensional polycyclic aromatics as a barrier layer or an encapsulation and electric components constructed with a layer of this type and comprising organic polymers” (priority 2003, published 2007):
Each block holds one molecule with its values, some of them ahead of it.

Assays:
plasma hemostasis [1] = assay: Partial activated thromboplastin time (PATT) after intravenous administration; type: in vivo, rabbit
Description: (§1) The investigations were performed on 72 rabbits of the “Chinchilla” breed with a mass of 2.5±0.3 kg, who were administered which solutions of compounds 2, 15, 21, 37 in doses of 15, 30 and 60 mg/kg intravenously. The experiments included the thrombin-test (series No. 7300) and the coagulability-test (series No. 5000) purchased from the scientific-and-production association (SPA) “Renam”, thromboplastin (series No. 240600) and calcium chloride purchased from the SPA “MedioLab”
(§2) The static parameters of the blood and plasma coagulation (partial activated thromboplastin time, thrombin time, maximum coagulation activity (test for auto coagulation) were determined using the Behnk Electronic coagulometer (Germany). The operating principle of this instrument is based on the fact that the formed blood clot breaks the contacts of the pulse counter in the flask-pin circuit, said pin permanently oscillating in a vertical plane. The moment of formation of the clot is registered by stopping the stop watch hand.
(§3) The measurements were effected at a constant temperature of 37° C. maintained by a temperature control unit.
Compounds 2, 15, 21, 37 according to the invention at a concentration of 15, 30 and 60 mg/kg were introduced to the above experimental animals intravenously, and their blood samples were taken off 15, 30, 60 and 120 minutes after the administration.
The blood plasma samples deprived of thrombocytes obtained as described above in an amount of 0.1 ml were put in a coagulometer flask and heated for 1 minute at 37° C., then 0.1 ml of 0.277% solution of calcium chloride was added and the blood clotting time was registered. The coagulation time T in seconds of the control plasma and plasma obtained after intravenous administration after 15, 30, 60 and 120 minutes were compared.

[2] = system: adenosine-sensitive receptors of erythrocytes; assay: Chemiluminescence study of bonding to erythrocytes and competition with adenosine; type: binding, mice of line BALB/c; details: 37° C. vs 4° C.; 10^−7 to 10^−5 M
Description: The interaction of compounds 2, 15, 21, 37 according to the invention with adenosine-sensitive receptors of erythrocytes of female mice of line BALB/c of an age of 8-12 months was investigated.
The dependence of the chemiluminescence intensity of the compounds according to the invention in an alkaline solution of 0.1N NaOH was determined in the presence of hydrogen peroxide being an initiator of chemiluminescence. The chemiluminescence was studied using the <<LKB>> chemiluminometer.
The erythrocytes of peripheral blood of the mice at first were washed three times by a normal physiological solution with centrifuging and then diluted in the Henks solution without glucose by 10 volumes of distilled water immediately used in the experiment.
At the first stage of the experiments the washed erythrocytes were incubated at a temperature of 37° C. or at 4° C. with solutions of the compounds according to the invention at a concentration of 10^−7 to 10^−5 M for 5-30 minutes, then washed by a normal physiological solution with repeated centrifuging in the cold. The obtained suspension of erythrocytes with the bound compounds according to the invention was placed in 0.1N solution of NaOH with addition of hydrogen peroxide at a final concentration of 10^−7 M. The chemiluminescence intensity was measured. A suspension of erythrocytes without compounds according to the invention was used as a control medium.
At the second stage of the experiments the washed erythrocytes were incubated at a temperature of 37° C. with solutions of the compounds according to the invention at a concentration of 10^−11 to 10^−8M during
5-30 minutes, then washed twice with a normal physiological solution by centrifuging in the cold, the obtained suspension was mixed with an adenosine solution at a concentration of 10^−6 to 10^−4 and incubated for 15 minutes, then washed twice with a normal physiological solution with centrifuging in the cold. The obtained suspension of erythrocytes with the compounds according to the invention was placed in 0.1N solution of NaOH with addition of hydrogen peroxide in the final concentration of 10^−7 M. The chemiluminescence intensity was measured.

plasma hemostasis [3] = assay: Prothrombin time after intravenous administration; type: in vivo, rabbit
Description: as §1, §2, §3
The method of its determination is based on estimation of the coagulation of citrate or oxalic blood plasma, when it is mixed with thromboplastin and a calcium chloride solution. Since under these conditions the time of formation of the clot depends on the content of II, VII, IX and X factors in the investigated plasma sample, now the test is called “thromboplastin time by Quick” or “activity thromboplastin complex”.
Compounds 2, 15, 21, 37 according to the invention at a concentration of 15, 30 and 60 mg/kg were administered to the above experimental animals intravenously and their blood was taken off after 15, 30, 60 and 120 minutes after the administration.
Citrate blood containing 1 part of citrate per 9 parts of native blood was centrifuged at 3000 rev/min for 10 minutes to obtain plasma deprived of thrombocytes.
Added into a test tube in a water bath were 0.1 ml of plasma and 0.1 ml of a thromboplastin solution. After 60 seconds, 0.1 ml of 0.277% solution of calcium chloride was added and the time of reaction T1 in seconds was registered.

thymus = assay: Morphine abstinence model: thymus condition; type: in vivo, rats; details: compound alone
[4] = system: synthase of nitrogen oxide (NOC); assay: Morphine abstinence model: activity of synthase of nitrogen oxide (radiometric, [3H]L-citrulline); type: in vivo, rats Wistar
[5] = compound alone 20.0 mg/kg intramuscularly
[6] = morphinized rats then compound 20.0 mg/kg intramuscularly

bond with the erythrocytes: dependence on incubation temperature [2]: does not depend on the temperature
SMILES: Nc1cnc2c(=O)n([C@@H]3O[C@H](CO)[C@@H](O)[C@H]3O)[nH]c(=O)c2n1.[Na] [Compound 21, sodium salt of 3-amino-7-(β-D-ribofuranosile)pyrazine[2,3-d]-6H-pyridazine-5,8-dione]
T, s after 15 minutes (PATT) (plasma hemostasis [1]; dose 15.0 mg/kg intravenously): 37.1 ± 0.1 s
T, s after 30 minutes (PATT) (plasma hemostasis [1]; dose 15.0 mg/kg intravenously): 37.2 ± 0.1 s
T, s after 60 minutes (PATT) (plasma hemostasis [1]; dose 15.0 mg/kg intravenously): 36.9 ± 0.1 s
T, s after 120 minutes (PATT) (plasma hemostasis [1]; dose 15.0 mg/kg intravenously): 37.0 ± 0.2 s
T, s after 15 minutes (PATT) (plasma hemostasis [1]; dose 30.0 mg/kg intravenously): 32.8 ± 0.4 s
T, s after 30 minutes (PATT) (plasma hemostasis [1]; dose 30.0 mg/kg intravenously): 32.0 ± 0.1 s
T, s after 60 minutes (PATT) (plasma hemostasis [1]; dose 30.0 mg/kg intravenously): 32.2 ± 0.1 s
T, s after 120 minutes (PATT) (plasma hemostasis [1]; dose 30.0 mg/kg intravenously): 32.1 ± 0.1 s
T, s after 15 minutes (PATT) (plasma hemostasis [1]; dose 60.0 mg/kg intravenously): 32.0 ± 0.4 s
T, s after 30 minutes (PATT) (plasma hemostasis [1]; dose 60.0 mg/kg intravenously): 32.1 ± 0.2 s
T, s after 60 minutes (PATT) (plasma hemostasis [1]; dose 60.0 mg/kg intravenously): 32.0 ± 0.1 s
T, s after 120 minutes (PATT) (plasma hemostasis [1]; dose 60.0 mg/kg intravenously): 32.3 ± 0.2 s
effect on the PATT (overall) (plasma hemostasis [1]; doses 15.0, 30.0, 60.0 mg/kg): do not affect the PATT
T, s After 120 minutes (prothrombin time) (plasma hemostasis [3]; dose 15.0 mg/kg intravenously): 11.5 ± 0.2 s
T, s after 15 minutes (prothrombin time) (plasma hemostasis [3]; dose 15.0 mg/kg intravenously): 11.4 ± 0.2 s
T, s after 30 minutes (prothrombin time) (plasma hemostasis [3]; dose 15.0 mg/kg intravenously): 11.5 ± 0.1 s
T, s after 60 minutes (prothrombin time) (plasma hemostasis [3]; dose 15.0 mg/kg intravenously): 11.3 ± 0.1 s
T, s After 120 minutes (prothrombin time) (plasma hemostasis [3]; dose 30.0 mg/kg intravenously): 11.2 ± 0.2 s
T, s after 15 minutes (prothrombin time) (plasma hemostasis [3]; dose 30.0 mg/kg intravenously): 11.2 ± 0.1 s
T, s after 30 minutes (prothrombin time) (plasma hemostasis [3]; dose 30.0 mg/kg intravenously): 11.2 ± 0.1 s
T, s after 60 minutes (prothrombin time) (plasma hemostasis [3]; dose 30.0 mg/kg intravenously): 11.3 ± 0.2 s
T, s After 120 minutes (prothrombin time) (plasma hemostasis [3]; dose 60.0 mg/kg intravenously): 12.0 ± 0.2 s
T, s after 15 minutes (prothrombin time) (plasma hemostasis [3]; dose 60.0 mg/kg intravenously): 12.0 ± 0.2 s
T, s after 30 minutes (prothrombin time) (plasma hemostasis [3]; dose 60.0 mg/kg intravenously): 11.8 ± 0.1 s
T, s after 60 minutes (prothrombin time) (plasma hemostasis [3]; dose 60.0 mg/kg intravenously): 12.1 ± 0.1 s
effect on the prothrombin time index (overall) (plasma hemostasis [3]; doses of 15.0, 30.0, 60.0 mg/kg): have no effect on the prothrombin time index

SMILES: O=c1[nH][nH]c(=O)c2nccnc12.[Li] [Compound 25, lithium salt of pyrazine[2,3-d]-6H-pyridazine-5,8-dione]
Nitrites, thymus Supernatant, Administration of compounds (thymus): 0.417 ± 0.02 nmol/mg of protein
Thymus mass, Administration of compounds (thymus): 254 ± 14 mg
Activity of NOC, Hypothalamus, Control + Compound [4, 5]: 5.88 ± 0.27 pmol/min/mg of protein
Activity of NOC, Mesencephalon, Control + Compound [4, 5]: 2.65 ± 0.43 pmol/min/mg of protein
Activity of NOC, Hypothalamus, Control + Morphine + compound [4, 6]: 5.23 ± 0.27 pmol/min/mg of protein
Activity of NOC, Mesencephalon, Control + Morphine + compound [4, 6]: 1.97 ± 0.27 pmol/min/mg of protein
